{
  "source": "patent US8784911B2",
  "about": "“Compositions for treatment and prevention of diabetic complications using Osteomeles schwerinae” (Korea Institute of Oriental Medicine, priority 2009, dated 2014)",
  "key": {"[1]": {"assay": "Free radical scavenging activity by DPPH method", "type": "biochemical", "settings": "30 minutes, room temperature", "procedure": "Anti-oxidative effect of Osteomeles […] extract, fractions thereof obtained from each of hexane layer, ethyl acetate layer, butanol layer and water layer of the extract was investigated in vitro. Free radical scavenging activity of each sample was measured by DPPH method (Brand-Williams W, et al., Technology, 1995, 28, 25-30). Samples were dissolved in ethanol, and diluted at different concentrations. Each of the diluted sample was distributed in 96 well plate (20 μl/well). […] DPPH solution dissolved in ethanol was added to each well by 180 μl to make the final volume of the reaction solution 200 μl, followed by reaction at room temperature for 30 minutes. Then, OD517 was measured with ELISA reader (Bio-TEK, Synergy HT, USA) to investigate absorbance changes by reduction of DPPH. Free radical scavenging activity was presented as RC50, which is the amount of sample (μg/ml) needed for the reduction of 50% DPPH. For the positive control, butylated hydroxytoluene (BHT) was used. Anti-oxidative effect of Osteomeles […] extract was measured in vitro by the same manner as described above and the results are shown in Table 7."}, "[2]": {"system": "type II diabetes animal model, Spontaneous Diabetic Torii (SDT) rat", "assay": "Type II diabetes animal model, SDT rat", "type": "in vivo", "from_the_text": "To investigate the preventive and therapeutic effect of Osteomeles schwerinae on diabetic complications in type II diabetes animal model, the extract was orally administered to Spontaneous Diabetic Torii (SDT) rats for 16 weeks, followed by analysis of the effect. Spontaneous Diabetic Torii (SDT) rats, the type II diabetes animal model, were used as test animals. Particularly, male SDT rats at 10 weeks (CLEA Japan Inc., Tokyo, Japan) were adapted for 1 week, and then raised for 15 weeks until high blood glucose was induced up to the level of 300 mg/dl. Feeds and water were provided freely. 15 weeks later, the rats were divided into 5 groups, 8 rats per each group. As test drugs, Osteomeles schwerinae extract (Os-100, OS-250) and metformin (MET, control drug) were orally administered once a day. The experimental groups were as follows: the normal group (NOR), the diabetes group (DM), the diabetes group treated with 350 mg/kg of metformin (MET), the diabetes group treated with 100 mg/kg of Osteomeles schwerinae extract (OS-100), and the diabetes group treated with 250 mg/kg of Osteomeles schwerinae extract (OS-250). Each group was orally administered with the test drug once a day for 16 weeks. Urine was taken for 24 hours before autopsy. The organs extracted from the autopsy were stored at −80° C.\nThe test animals were anesthetized by peritoneally injecting pentobarbital sodium (25 mg/kg body weight). Heart was extracted by opening abdominal cavity and thoracic cavity. 50 mg/ml of fluorescein-dextran (2×10^6 molecular weight) dissolved in 1 ml/ml sterilized PBS was injected in the left ventricle. 10 minutes later, eye balls were extracted. Retina was separated from eyecup of the left eye ball. The isolated retina was placed on the slide, followed by mounting with aqueous mounting medium. The slide was completely dried and observed under fluorescent microscope. Fluorescent material was injected in retinal blood vessel, followed by observation. […] To investigate blood-retinal barrier damage, outflow of the fluorescent material was observed. […] However, the fluorescent material was leaked out of blood vessels, indicating blood-retinal barrier damage, in multiple animals of the diabetes group (arrow), and non-perfusion area (arrow) caused by the blood vessel being narrow was also observed in some of those animals in the diabetes group.\nLens was separated and lens opacity was examined to investigate the preventive effect of the extract on lens opacity. Eye balls were extracted during autopsy, which were placed in PBS (phosphate buffered saline, pH 7.4). Lens was carefully separated from the eyeball by posterior approach. Then, iris and zonule were eliminated. The lens was photographed under optical microscope equipped with CCD camera (BX51, Olympus, Japan). Lens opacity was measured with the photographed lens images by using Scion image analyzer (Scion Corporation, USA). The results of investigation of lens opacity with the lens isolated from the eye ball extracted during autopsy are shown in FIG. 39 and in FIG. 40. […] Incidence rate of cataract and lens opacity were quantitatively analyzed.\nLens opacity is caused by the degeneration of lens fiber composing lens. Thus, to investigate the effect of Osteomeles schwerinae extract on lens fiber degeneration, the effect of Osteomeles schwerinae extract on lens fiber degeneration in SDT type II diabetes rat was analyzed. To observe the degeneration of lens fiber induced by cataract, lens was fixed in 10% neutralized formalin (Microme, USA) for 24 hours, followed by the conventional tissue treatment. After paraffin embedding, the embedded block was cut into 2 μm thick sections, followed by hydration. The sections were stained with rhodamine-labeled wheat-germ agglutinin (WGA, Vector Laboratory, USA), and observed under fluorescent microscope (BX51, Olympus, Japan). To investigate the preventive effect on lens fiber degeneration, lens was stained and observed. […]"}, "[3]": {"system": "type II diabetes animal model, Spontaneous Diabetic Torii (SDT) rat", "assay": "Type II diabetes animal model, SDT rat", "type": "in vivo", "settings": "oral once a day 16 weeks; extract 100 and 350 mg/kg as printed; metformin 350 mg/kg; vs diabetes group"}},
  "data": [
    {"smiles": "Cc1cc(C(C)(C)C)c(O)c(C(C)(C)C)c1", "note": "[BHT, butylated hydroxytoluene]", "values": [
      {"measurement": "RC50 (μg/ml), amount of sample needed for the reduction of 50% DPPH", "setting": "[1]", "value": "26.75 ± 10.75", "unit": "µg/mL"}
    ]},
    {"smiles": "CN(C)C(=N)N=C(N)N", "note": "[metformin]", "values": [
      {"measurement": "blood-retinal barrier damage, outflow of the fluorescent material", "setting": "[2]; 16 weeks", "value": "observed just barely"},
      {"measurement": "pericyte loss, acellular capillary formation and closed vessels", "setting": "[2]; 16 weeks", "value": "significantly inhibited"},
      {"measurement": "GFAP positive reaction, Muller cell activation", "setting": "[2]; 16 weeks, vs diabetes group", "value": "rather decreased"},
      {"measurement": "aldose reductase (AR) activity in lens", "setting": "[2]; 16 weeks, extract 250 mg/ml as printed, metformin, vs diabetes group", "value": "AR activity was significantly reduced"},
      {"measurement": "lens fiber degeneration, swelling and vesicle formation", "setting": "[2]; 16 weeks, extract high concentration, metformin 350 mg/kg", "value": "improving effect was hardly observed"},
      {"measurement": "retinal angiogenesis, fluorescein-dextran", "setting": "[2]; 16 weeks, extract low and high concentration, metformin 350 mg/kg", "value": "Angiogenesis was also observed"},
      {"measurement": "podocyte loss, synaptopodin staining", "setting": "[2]; 16 weeks, extract low and high concentration, metformin 350 mg/kg, vs diabetes group", "value": "no significant difference"},
      {"measurement": "glomerular hypertrophy and mesangial matrix enlargement, PAS staining", "setting": "[2]; oral once a day 16 weeks, extract 100 and 250 mg/kg, metformin 350 mg/kg", "value": "morphological changes were reduced, which was not significant"},
      {"measurement": "level of AGEs in urine", "setting": "[3]", "value": "not significantly changed"}
    ]}
  ]
}
